In article PMC6934184, “Selective DNA-PKcs inhibition extends the therapeutic index of localized radiotherapy and chemotherapy” (The Journal of Clinical Investigation, 2019):

Biological target: T1, SYK (Homo sapiens, UniProt P43405)
T1 construct: purchased Thermo Fisher Scientific (Life Technologies) SelectScreen
Experiment: SelectScreen Z'LYTE
Assay type: biochemical
Outline: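 Percent values come from Thermo SelectScreen profiling of NU5455, combining activity and binding assays. CSF1R was run in Z'LYTE format at Km app ATP, and CAMK1 in Adapta format with ATP listed at 10.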

In the case of `CN(C(=O)CN1CCOCC1)c1ccc2sc3c(-c4cccc5c(=O)cc(N6CC7CCC(C6)O7)oc45)cccc3c2c1` [NU5455], the inhibition at 1 µM is reported as -0.2%.
